Results taken from patent publication US5750504A, “Antimicrobial proteins” (Zeneca Agrochemicals, priority 1996, dated 1998).

What was measured:
Test in all cases: Antibacterial activity assay (microspectrophotometry)
Type in all cases: cell-based
Conditions in all cases: tested at 200 μg/ml
Eschericia coli HB101 = tested on: Eschericia coli HB101
Procedure: (§1) Antibacterial activity was measured microspectrophotometrically as follows. A bacterial suspension was prepared by inoculating soft nutrient agarose (tryptone, 10 g/l; Seaplaque agarose (FMC), 5 g/l). Aliquots (80 μl) of the bacterial suspension (10^5 colony forming units per ml) were added to filter-sterilized samples (20 μl) in flat-bottom 96-well microplates. The absorbance at 595 nm of the culture was measured with the aid of a microplate reader after 30 minutes and 24 hours of incubation at 28° C. Percent growth inhibition was calculated as described above for the antifungal activity assay.
(§2) The antibacterial activities of Ah-AMP1 and Hs-AFP1 were measured on four gram positive bacteria (Bacillus subtilis JHCC 553331; Micrococcus luteus ATCC 93411; Staphylococcus aureus ATCC 25923; Streptococcus feacolis ATCC 29212) and two gram negative bacteria (Eschericia coli HB101 and Proteus vulgaris JHCC 558711).

[1] = tested on: Micrococcus luteus ATCC 93411
Procedure: as §1, §2

[2] = tested on: Proteus vulgaris JHCC 558711
Procedure: as §1, §2

[3] = tested on: Staphylococcus aureus ATCC 25923
Procedure: as §1, §2

[4] = tested on: Streptococcus feacolis ATCC 29212
Procedure: as §1, §2

Measured: inhibition of bacterial growth

Hs-AFP1: Heuchera sanquinea antifungal protein 1; 5 kDa polypeptide purified from seeds, 54 amino acids, SEQ ID NO 1 (DGVKLCDVPSGTWSGHCGSSSKCSQQCKDREHFAYGGACHYQFPSVKCFCKRQC)
did not inhibit the growth: all assays above
